Data on nine compounds can be found in patent publication US5001149A, “Azadirachtin derivative insecticides” (NPI, priority 1987, dated 1991).

The subject of one series is insect. The settings on record: Kubo & Klocke; cited from earlier work.
In a further series the test system is insects. The settings on record: Kubo & Klocke and other literature; cited from earlier work.
In series [1] the test system is fifth-instar Heliothis virescens larvae. Nature of the series: Pupal and adult development of fifth-instar larvae injected orally with non-irradiated compounds. Format: in vivo. The settings on record: for mortality at 0.001 mg: Heliothis virescens, light or radiation study, po, read-out: % Mortality Prior to Adult Stage. As for the experimental part: (§1) Individual larvae were injected per os on the first day of the fifth instar with 1.0 μg of one of the either irradiated or non-irradiated compounds dissolved in 1.0 μl of 75% aqueous ethanol.
Successful and unsuccessful pupal and adult development of fifthinstar
Heliothis Virescens larvae injected orally with 1.0 microgram of either
azadirachtin, 3deacetylazadirachtin, 22,23dihydroazadirachtin, or
2',3',22,23tetrahydroazadirachtin.

For series [2] the test system is unchanged. Nature of the series: Relative activity of UV-irradiated compounds in inhibiting pupal development (pupation). The settings on record: for Relative activity, inhibiting pupal development: relative to non-irradiated. The format is in vivo. As for the experimental part: (§2) Azadirachtin and its derivatives listed above (1.0 mg/ml absolute ethanol) were placed individually in capped quartz NMR tubes (5×180 mm) and were irradiated with two UV germicidal lights (GE, G30T8, 200-280 nm, 30 W) 1.8 m from the source at room temperature for up to 400 h. The controls were identical samples protected from exposure to UV radiation by wrapping with aluminum foil. At selected time intervals, aliquots from both the controls (non-irradiated) and irradiated samples were removed for high-performance liquid chromatography (HPLC) analysis (vide infra) and bioassay.
as §1
(§3) Relative activity of azadirachtin, 3deacetylazadirachtin,
22,23dihydroazadirachtin, and 2',3',22,23tetrahydroazadirachtin, all of
which had been exposed for 15, 30, 90, 200, and 400 hours to UV radiation
inhibiting the pupal development of fifthinstar Heliothis virescens
(§4) larvae. Relative activity is defined as the percentage of larvae injected

The subject of series [3] is first-instar Heliothis virescens larvae. Kind of series: Mortality and growth inhibition in first-instar Heliothis virescens larvae fed in an artificial diet. The format is in vivo. The settings on record: for LC50: Heliothis virescens, read-out: LC50 (concentration causing 50% mortality); for LC50 / LC50 (concentration causing 50% mortality): po; for EC50 (concentration causing 50% growth inhibition): first-instar larvae, artificial diet, in parentheses 95% confidence limits; for LC50 (concentration causing 50% mortality): heliothis virescens, in vivo. The text has this: Mortality and growth inhibition in first-instar Heliothis
virescens larvae fed azadirachtin and eight derivatives in an
^b LC50 values are the concentrations (ppm) causing 50%
^c EC50 values are the concentrations (PPM) causing 50% growth
^d Numbers in parentheses are the 95% confidence limits determined
using the methods of Litchfield and Wilcoxon, J. Pharmacol. Exp. Ther.

Series [4] relates to fifth-instar Heliothis virescens larvae. Nature of the series: Relative activity of UV-irradiated compounds in inhibiting adult development. Format: in vivo. The settings on record: for Relative activity, inhibiting adult development: relative to non-irradiated. The method, then: as §2, §1, §3
22,23dihydroazadirachtin, 2',3',22,23tetrahydroazadirachtin, all of which
had been exposed for 15, 30, 90, 200, and 400 hours to UV radiation, in
inhibiting the adult development of fifthinstar Heliothis virescens
as §4
relative to the percentage injected with its nonirradiated counterpart

Series [5] is described as follows: Stability to UV irradiation by reversed phase HPLC. The format is physicochemical. The settings on record: for degraded at 90 h / half-life: absolute ethanol, uv. As for the experimental part: Stability of Azadirachtin derivatives was determined as follows:
as §2
Analytical reversed phase HPLC was performed on a phenyl (5 μm) column run isocratically with acetonitrile-water (3:7) (Yamasaki et al.) Peaks were detected at 214 nm. The irradiated samples were compared with their corresponding non-UV-irradiated controls by measuring the height of the peak eluting at the appropriate Rt for each irradiated compound relative to each one's non-irradiated control. Results are expressed as the percent of the initial sample concentration remaining relative to the control. Each time point was done in at least triplicate fashion.

[6] abbreviates: 1.0 microgram per os, fifth instar, non-irradiated.
Where [7] appears, read: 1.0 microgram per os, non-irradiated.

≈ marks a conversion by molar mass, not a printed value. Entries after “also recorded” stand apart in the source; their conditions may differ.

`C/C=C(\C)C(=O)O[C@@H]1C[C@H](O)[C@]23CO[C@H](C(=O)OC)[C@H]2[C@](C)([C@]24O[C@@]2(C)[C@H]2C[C@@H]4O[C@@H]4OC=C[C@@]42O)[C@H](O)[C@@H]2OC[C@@]1(C(=O)OC)[C@H]23` [deacetylazadirachtinol]: the “fold less active than azadirachtin as insect growth inhibitor” value in the series on insect is recorded as “about 2.5 fold”. The “ecdysis inhibitory activity, in words” value in the series with insects was “the same ecdysis inhibitory activity”.
Take `CCC(C)C(=O)OC1CC(OC(C)=O)C2(C(=O)OC)COC3C2C12COC(O)(C(=O)OC)C2C(C)(C12OC1(C)C1CC2OC2OCCC21O)C3O` (stereo not drawn) [Compound 8, 2',3',22,23-tetrahydroazadirachtin]: in series [1] (setting [6]), the “Number Pupae” value is reported as 10. The “Number Unsuccessful Larvae-Pupae” value in series [1] (setting [6]) is recorded as 6. The “Number Unsuccessful Pupae-Adult” value in series [1] (setting [6]) is recorded as 1. In addition, in series [1] (setting [7]), the “inhibition of pupation, in words” value is listed as “equally effective in inhibiting pupation”. In series [1], the mortality (as a rule, the percentage killed) at 0.001 mg came out at 100%. The “Relative activity, inhibiting pupal development” value in series [2] (15 h UV) was determined as 99.4%; in series [2] (30 h UV) it was 103.7%; in series [2] (90 h UV) it was 99.7%; in series [2] (200 h UV) it was 108.0%; in series [2] (400 h UV), 69.1%. For the same compound, the “ability to inhibit pupation, in words” value is reported as “most active in inhibiting pupation” in series [2] (200 h UV) and “its activity declined after 400 h of exposure, it was still more active than the other test compounds” in series [2] (400 h UV). The “loss in activity with degradation, in words” value in series [2] (400 h UV) is “some loss in activity”. Besides, the LC50 in series [3] was 0.3 µg/mL (≈ 0.414 µM). For the same compound, the “growth inhibitory and lethal activity, in words” value in series [3] (relative to azadirachtin) is “retaining full activity; also recorded: fully active”. Further, the “Relative activity, inhibiting adult development” value in series [4] (15 h UV), in series [4] (30 h UV), in series [4] (90 h UV), in series [4] (200 h UV) and in series [4] (400 h UV) was 100.0% each time. Also, the “ability to inhibit larvae from reaching the adult stage, in words” value (shortened to “ability to inhibit larvae”) in series [4] (400 h UV) is on record as “fully active after 400 h of irradiation”.
Turning to “13,20-O, O-dicarbomethoxy-22,23-dihydroazadirachtin [Compound 6]”, in series [3], the “EC50 (concentration causing 50% growth inhibition)” value is 29.0 (20.3-41.5) ppm and the “LC50 (concentration causing 50% mortality)” value is recorded as 90.0 (37.8-214.5) ppm.
Consider 13-O-methylazadirachtin [Compound 5], for which, in series [3], the “EC50 (concentration causing 50% growth inhibition)” value was 5.00 (1.54-16.25) ppm and the “LC50 (concentration causing 50% mortality)” value is 25.0 (12.2-51.4) ppm.
Consider `COC(=O)C1(O)OCC23C(O)CC(OC(C)=O)C4(C(=O)OC)COC(C42)C(O)C(C)(C24OC2(C)C2CC4OC4OCCC42O)C13` (stereo not drawn) [Compound 7, 1-detigloyl-22,23dihydroazadirachtin], for which the LC50 in series [3] came out at 2.4 µg/mL (≈ 3.75 µM).
As for `C/C=C(\C)C(=O)OC1CC(O)C2(C(=O)OC)COC3C2C12COC(O)(C(=O)OC)C2C(C)(C12OC1(C)C1CC2OC2OC=CC21O)C3O` (stereo not drawn) [Compound 2, 3-deacetylazadirachtin], the “Number Unsuccessful Larvae-Pupae” value in series [1] (setting [6]) turned out to be 13. For the same compound, in series [1] (setting [6]), the “Number Unsuccessful Pupae-Adult” value stood at 4. Also, the “inhibition of pupation, in words” value in series [1] (setting [7]) is on record as “less effective”. In series [1], the mortality at 0.001 mg amounted to 94.1%. In addition, the “degradation, in words” value in series [5] is given as “none of the three compounds remained in their original state”. Further, the “reaction order of UV degradation, in words” value in series [5] was “degraded in a first-order reaction”. Also, the degraded at 90 h in series [5] is greater than 80%. Further, the half-life (as a rule, how long it takes for the measured level to halve) in series [5] is 25 h. In addition, the “Relative activity, inhibiting pupal development” value was 115.2% in series [2] (15 h UV); 135.0% in series [2] (30 h UV); 139.5% in series [2] (90 h UV); 86.8% in series [2] (200 h UV); 41.0% in series [2] (400 h UV). Also, in series [2] (90 h UV), the “activity retained, in words” value is listed as “retained full activity”. In addition, the “ability to inhibit pupation, in words” value was “did decline” in series [2] (200 h UV), “An even greater decline” in series [2] (400 h UV) and “not appreciably reduced” in series [2] (up to 90 h UV). In series [2] (400 h UV), the activity retained entry is listed as “approximately 50%”. Also, in series [3], the LC50 was 0.37 µg/mL (≈ 0.545 µM). The “Relative activity, inhibiting adult development” value is given as 103.2% in series [4] (15 h UV); 106.3% in series [4] (30 h UV); 106.3% in series [4] (90 h UV); 96.0% in series [4] (200 h UV); 72.3% in series [4] (400 h UV). In addition, the “ability to inhibit larvae” value in series [4] (200 h UV) is reported as “remained substantially unchanged until 400 h of irradiation”.
Consider 13O-acetylazadirachtin [Compound 4], for which, in series [3], the “EC50 (concentration causing 50% growth inhibition)” value is 0.18 (0.08-0.40) ppm and the “LC50 (concentration causing 50% mortality)” value is on record as 0.95 (0.59-1.54) ppm.
As for `COC(=O)C1(O)OCC23C(OC(=O)C(C)(O)C(C)O)CC(OC(C)=O)C4(C(=O)OC)COC(C42)C(O)C(C)(C24OC2(C)C2CC4OC4OCCC42O)C13` (stereo not drawn) [Compound 9, 2',3'-dihydroxy-2',3'22,23-tetrahydroazadirachtin], in series [3], the LC50 is 42 µg/mL (≈ 55.5 µM).
`C/C=C(\C)C(=O)OC1CC(OC(C)=O)C2(C(=O)OC)COC3C2C12COC(O)(C(=O)OC)C2C(C)(C12OC1(C)C1CC2OC2OCCC21O)C3O` (stereo not drawn) [Compound 3, 22,23-dihydroazadirachtin]: in series [1] (setting [6]), the “Number Unsuccessful Larvae-Pupae” value worked out at 13. The “Number Unsuccessful Pupae-Adult” value in series [1] (setting [6]) was determined as 4. Further, the “inhibition of pupation, in words” value in series [1] (setting [7]) is given as “less effective”. The mortality at 0.001 mg in series [1] was 96.6%. Also, the “degradation, in words” value in series [5] is given as “none of the three compounds remained in their original state”. Besides, the “reaction order of UV degradation, in words” value in series [5] is reported as “degraded in a first-order reaction”. In series [5], this compound yielded a degraded at 90 h greater than 80%. For the same compound, the half-life in series [5] is 25 h. For the same compound, the “Relative activity, inhibiting pupal development” value is 113.1% in series [2] (15 h UV); 104.6% in series [2] (30 h UV); 100.0% in series [2] (90 h UV); 72.7% in series [2] (200 h UV); 49.1% in series [2] (400 h UV). The “activity retained, in words” value in series [2] (90 h UV) is listed as “retained full activity”. Further, the figures for the “ability to inhibit pupation, in words” value in series [2] (200 h UV), in series [2] (400 h UV) and in series [2] (up to 90 h UV) were “did decline”, “An even greater decline” and “not appreciably reduced”, respectively. Besides, in series [2] (400 h UV), the activity retained result is recorded as “approximately 50%”. The LC50 in series [3] worked out at 0.47 µg/mL (≈ 0.65 µM). Moreover, the “Relative activity, inhibiting adult development” value came out at 103.5% in series [4] (15 h UV); 100.1% in series [4] (30 h UV); 103.5% in series [4] (90 h UV); 69.0% in series [4] (200 h UV); 74.5% in series [4] (400 h UV). Further, the “ability to inhibit larvae” value in series [4] (200 h UV) is given as “more so”.
